The values below come from US8076331B2, “Substituted pyridazine derivatives” (Cephalon, Inc., priority 2008, dated 2011).

Where a name gives a salt, the structure may show the parent alone.

One data set concerns the target T1, human H3 receptor (Homo sapiens, UniProt Q9Y5N1).
T1 construct: expressed in transfected cells
As to the kind of experiment: Human H3 radioligand binding ([3H]-N-alpha-methylhistamine, CHO cell membranes). Conditions: membranes of CHO cells stably expressing the human H3 receptor; [3H]-N-alpha-methylhistamine approx. 1 nM. As for the experimental part:
Methods: CHO cells stably expressing the human H3 receptor (GenBank: NM_007232) were harvested and cell pellets were frozen (—80° C.). Cell pellets were resuspended in 5 mM Tris-HCl, pH 7.5 with […] and a cocktail of protease inhibitors (Complete Protease Inhibitior Tablets, Roche Diagnostics). Cells were disrupted using a polytron cell homogenizer and the suspension was centrifuged at 1000×g for 10 minutes at 4° C. The pellet was discarded and the supernatant centrifuged at 40,000×g for 30 min at 4° C. This membrane pellet was washed in membrane buffer containing 50 mM Tris-HCl, pH 7.5 with 0.6 mM EDTA, 5 mM MgCl2 and protease inhibitors, recentrifuged as above and the final pellet resuspended in membrane buffer plus 250 mM sucrose and frozen at −80° C.
Radioligand Binding. Membranes were resuspended in 50 mM Tris HCl (pH 7.4), 5 mM MgCl2, 0.1% BSA. The membrane suspensions (10 μg protein per well) were incubated in a 96 well microtiter plate with [^3H]-N-alpha-methylhistamine (approximately 1 nM final concentration), test compounds at various concentrations (0.01 nM-30 μM) and scintillation proximity beads (Perkin Elmer, FlashBlueGPCR Scintillating Beads) in a final volume of 80 μl for 4 hours at room temperature, protected from light. Non-specific binding was determined in the presence of 10 μM clobenpropit. Radioligand bound to receptor, and therefore in proximity to the scintillation beads, was measured using a MicroBeta scintillation counter.

T1 sequence (Q9Y5N1 whole entry): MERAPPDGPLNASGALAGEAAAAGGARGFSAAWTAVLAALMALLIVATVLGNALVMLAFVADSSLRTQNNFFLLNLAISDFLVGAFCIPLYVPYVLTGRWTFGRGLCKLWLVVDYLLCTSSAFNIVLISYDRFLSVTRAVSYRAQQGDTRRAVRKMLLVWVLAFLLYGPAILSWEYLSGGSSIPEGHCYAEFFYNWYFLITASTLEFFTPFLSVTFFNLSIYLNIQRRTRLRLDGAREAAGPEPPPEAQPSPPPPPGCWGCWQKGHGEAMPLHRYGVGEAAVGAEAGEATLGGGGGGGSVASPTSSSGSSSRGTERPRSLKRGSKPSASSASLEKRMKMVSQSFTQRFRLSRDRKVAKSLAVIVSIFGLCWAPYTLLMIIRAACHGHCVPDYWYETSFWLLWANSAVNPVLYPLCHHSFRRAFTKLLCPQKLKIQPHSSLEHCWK

`C[C@@H]1CCCN1CCCOc1ccc(-c2cccnn2)cc1` (as salt: HCl) [Example 45, 3-{4-[3-((R)-2-Methyl-pyrrolidin-1-yl)-propoxy]-phenyl}-pyridazine] showed a melting point of 198 to 201 °C. Turning to `C[C@@H]1CCCN1CCCOc1ccc(-c2ccc(Cl)nn2)cc1` [Example 1, 3-Chloro-6-{4-[3-((R)-2-methyl-pyrrolidin-1-yl)propoxy]-phenyl}pyridazine], the Ki at human H3 receptor is under 0.05 µM. In turn, `Clc1ccc(-c2ccc(OCCCN3CCCCC3)cc2)nn1` [Example 2, 3-Chloro-6-[4-(3-piperidin-1-yl-propoxy)-phenyl]pyridazine] came in with a melting point of 140 °C. The compound further showed a Ki at human H3 receptor of under 0.05 µM.

For `Cc1ccc(-c2ccc(OCCCN3CCC[C@H]3C)cc2)nn1` [Example 3, 3-Methyl-6-{4-[3-((R)-2-methyl-pyrrolidin-1-yl)-propoxy]-phenyl}pyridazine], the Ki on human H3 receptor was under 0.05 µM.

With `C[C@@H]1CCCN1CCCOc1ccc(-c2ccc(-c3ccccc3)nn2)cc1` [Example 4, 3-{4-[3-((R)-2-Methyl-pyrrolidin-1-yl)-propoxy]-phenyl}-6-phenylpyridazine], the melting point was in the range of 158 to 160 °C. Also, the inhibition constant (Ki) at human H3 receptor is under 0.05 µM. For the compound `C[C@@H]1CCCN1CCCOc1ccc(-c2ccc(N3CCCC3)nn2)cc1` [Example 5, 3-{4-[3-((R)-2-Methyl-pyrrolidin-1-yl)-propoxy]-phenyl}-6-pyrrolidin-1-yl-pyridazine], the melting point lay in the range of 175 to 180 °C. The same compound displayed an inhibition constant (Ki) at human H3 receptor of under 0.05 µM. Consider `C[C@@H]1CCCN1CCCOc1ccc(-c2ccc(N3CCOCC3)nn2)cc1` [Example 6, 4-(6-{4-[3-((R)-2-Methylpyrrolidin-1-yl)-propoxy]phenyl}pyridazin-3-yl)morpholine], for which the Ki at human H3 receptor is under 0.05 µM. On to `C[C@@H]1CCCN1CCCOc1ccc(-c2ccc(N)nn2)cc1` [Example 7, 6-{4-[3-((R)-2-Methyl-pyrrolidin-1-yl)-propoxy]-phenyl}pyridazin-3-ylamine], for which the melting point is 121 to 122 °C. This compound had a Ki at human H3 receptor of under 0.05 µM. The compound `CNc1ccc(-c2ccc(OCCCN3CCC[C@H]3C)cc2)nn1` [Example 8, Methyl-(6-{4-[3-((R)-2-methyl-pyrrolidin-1-yl)-propoxy]phenyl}pyridazin-3-yl)amine] returned a melting point of 126 to 129 °C. The inhibition constant (Ki) at human H3 receptor is under 0.05 µM. For `C[C@@H]1CCCN1CCCOc1ccc(-c2ccc(N3CCC(O)CC3)nn2)cc1` [Example 9, 1-(6-{4-[3-((R)-2-Methylpyrrolidin-1-yl)-propoxy]phenyl}pyridazin-3-yl)piperidin-4-ol] the same measures were 138 to 141 °C and under 0.05 µM. `COc1cc(-c2ccc(Cl)nn2)ccc1OCCCN1CCC[C@H]1C` [Example 10, 3-Chloro-6-{3-methoxy-4-[3-((R)-2-methyl-pyrrolidin-1-yl)propoxy}phenyl}pyridazine] came in with a melting point of 122 °C. At human H3 receptor, this compound displayed a Ki of over 0.101 µM. The compound `COc1cc(-c2ccc(Cl)nn2)ccc1OCCCN1CCCCC1` [Example 11, 3-Chloro-6-[3-methoxy-4-(3-piperidin-1-yl-propoxy)phenyl]pyridazine] displayed a melting point of 120 °C. On human H3 receptor, the Ki is over 0.101 µM. The like results for `Cc1cc(OCCCN2CCCCC2)ccc1-c1ccc(Cl)nn1` [Example 12, 3-Chloro-6-[2-methyl-4-(3-piperidin-1-yl-propoxy)phenyl]pyridazine] were, in that order, 85 °C and under 0.05 µM. As to `C[C@@H]1CCCN1CCCOc1ccc(-c2ccc(Cl)nn2)cc1C#N` [Example 13, 5-(6-Chloro-pyridazin-3-yl)-2-[3-((R)-2-methyl-pyrrolidin-1-yl)-propoxy]benzonitrile], the melting point is 134 to 136 °C. Moreover, the inhibition constant (Ki) on human H3 receptor was under 0.05 µM.

As for `N#Cc1cc(-c2ccc(Cl)nn2)ccc1OCCCN1CCCCC1` [Example 14, 5-(6-Chloro-pyridazin-3-yl)-2-(3-piperidin-1-yl-propoxy)benzonitrile], the melting point is 140 to 142 °C. Besides, at human H3 receptor, the Ki was over 0.101 µM. `Clc1nnc(-c2ccc(OCCCN3CCCCC3)cc2)c2c1CCC2` [Example 15, 1-Chloro-4-[4-(3-piperidin-1-yl-propoxy)-phenyl]-6,7-dihydro-5H-cyclopenta[d]pyridazine] came in with a melting point of 120 °C. In addition, the Ki on human H3 receptor was under 0.05 µM. `C[C@@H]1CCCN1CCCOc1ccc(-c2ccc(-c3cccs3)nn2)cc1` [Example 16, 3-{4-[3-((R)-2-Methyl-pyrrolidin-1-yl)-propoxy]phenyl}-6-thiophen-2-yl-pyridazine]: the melting point worked out at 108 °C. This compound displayed an inhibitory constant (Ki) on human H3 receptor of under 0.05 µM. In the case of `C[C@@H]1CCCN1CCCOc1ccc(-c2nnc(Cl)c3c2CCC3)cc1` [Example 17, 1-Chloro-4-{4-[3-((R)-2-metyl-pyrrolidin-1-yl)-propoxy]-phenyl}-6,7-dihydro-5H-cyclopenta[d]pyridazine], the melting point was 65 °C. This compound registered an inhibition constant Ki at human H3 receptor of under 0.05 µM. For the compound `C[C@@H]1CCCN1CCCOc1ccc(-c2nnc(Cl)c3c2C2CCC3CC2)cc1` [Example 18, 3-Chloro-6-{4-[3-((R)-2-methyl-pyrrolidin-1-yl)-propoxy]-phenyl}-4,5-diaza-tricyclo[6.2.2.0*2,7*]dodeca-2(7),3,5-triene], the melting point is 132 to 134 °C. Besides, the Ki at human H3 receptor was under 0.05 µM. The like results for `C[C@@H]1CCCN1CCCOc1ccc(-c2ccc(Oc3cncc(Cl)c3)nn2)cc1` [Example 19] were, in that order, 119 °C and under 0.05 µM.

As to `c1ccc(COc2ccc(-c3ccc(OCCCN4CCCCC4)cc3)nn2)cc1` [Example 20, 3-Benzyloxy-6-[4-(3-piperidin-1-yl-propoxy)phenyl]pyridazine], on human H3 receptor, the Ki is under 0.05 µM. For the compound `C[C@@H]1CCCN1CCCOc1ccc(-c2ccc(OCc3ccccc3)nn2)cc1` [Example 21, 3-Benzyloxy-6-{4-[3-((R)-2-methyl-pyrrolidin-1-yl)-propoxy]phenyl}pyridazine], the melting point came out at 114 °C. The compound further came in with a Ki at human H3 receptor of under 0.05 µM. Regarding `COc1ccc(-c2ccc(OCCCN3CCC[C@H]3C)cc2)nn1` [Example 22], the melting point was 121 °C. At human H3 receptor, the inhibitory constant (Ki) was under 0.05 µM.

The compound `COc1ccc(-c2ccc(OCCCN3CCCCC3)cc2)nn1` [Example 23] had a melting point of 116 °C. Moreover, on human H3 receptor, the Ki is under 0.05 µM. In turn, `CC(C)Oc1ccc(-c2ccc(OCCCN3CCC[C@H]3C)cc2)nn1` [Example 24] had a melting point of 75 °C. The compound further came in with a Ki on human H3 receptor of under 0.05 µM. The compound `c1ccc(Oc2ccc(-c3ccc(OCCCN4CCCCC4)cc3)nn2)cc1` [Example 25, 3-Phenoxy-6-[4-(3-piperidin-1-yl-propoxy)phenyl]pyridazine] displayed a melting point of 139 °C. This compound came in with a Ki at human H3 receptor of under 0.05 µM. Turning to `C[C@@H]1CCCN1CCCOc1ccc(-c2ccc(OCc3ccc(F)cc3)nn2)cc1` [Example 26, 3-(4-Fluoro-benzyloxy)-6-{4-[3-((R)-2methyl-pyrrolidin-1-yl)-propoxy]phenyl}pyridazine], the melting point is 118 °C. Further, the inhibition constant Ki at human H3 receptor was under 0.05 µM. Compound `C[C@@H]1CCCN1CCCOc1ccc(-c2ccc(OCc3ccc(C(F)(F)F)cc3)nn2)cc1` [Example 27, 3-{4-[3-((R)-2-Methyl-pyrrolidin-1-yl)-propoxy]-phenyl}-6-(4-trifluoromethyl-benzyloxy)pyridazine] registered a melting point of 160 °C. This compound also had a Ki at human H3 receptor of under 0.05 µM. On human H3 receptor, `CCNc1ccc(-c2ccc(OCCCN3CCC[C@H]3C)cc2)nn1` [Example 28, Ethyl-(6-{4-[3-((R)-2-methyl-pyrrolidin-1-yl)-propoxy]-phenyl}pyridazin-3-yl)amine] came in with an inhibition constant (Ki) of under 0.05 µM. On human H3 receptor, `CSc1nnc(-c2ccc(OCCCN3CCC[C@H]3C)cc2)c2c1CCC2` [Example 32, 1-{4-[3-((R)-2-Methyl-pyrrolodin-1-yl)-propoxy]-phenyl}-4-methylsulfanyl-6,7-dihydro-5H-cyclopenta[d]pyridazine] yielded a Ki of under 0.05 µM. At human H3 receptor, `C[C@@H]1CCCN1CCCOc1ccc(-c2ccc([S+]([O-])Cc3ccccc3)nn2)cc1` (stereo partly drawn) [Example 35, 3-{4-[3-((R)-2-Methylpyrrolidin-1-yl)propoxy]phenyl}-6-phenylmethanesulfinyl-pyridazine] displayed an inhibitory constant (Ki) of under 0.05 µM. For the compound `C[C@@H]1CCCN1CCCOc1ccc(-c2ccc(S(=O)(=O)Cc3ccccc3)nn2)cc1` [Example 37, 3-{4-[3-((R)-2-Methyl-pyrrolidin-1-yl)-propoxy]phenyl}-6-phenylmethanesulfonyl-pyridazine], the Ki at human H3 receptor was under 0.05 µM.

Compound `C[C@H](COc1ccc(-c2ccc(Cl)nn2)cc1)CN1CCC[C@H]1C` [Example 43, 3-Chloro-6-{4-[(S)-2-methyl-3-((R)-2-methylpyrrolidin-1-yl)propoxy]-phenyl}pyridazine] registered a Ki at human H3 receptor of under 0.05 µM. `C[C@@H]1CCCN1CCCOc1ccc(-c2cccnn2)cc1` [Example 45, 3-{4-[3-((R)-2-Methyl-pyrrolidin-1-yl)-propoxy]-phenyl}-pyridazine]: the Ki at human H3 receptor is under 0.05 µM.
